{"source": "PubChem BioAssay AID1259407", "about": "(Chemical Carcinogenesis Research Information System (CCRIS), 2018)", "tested_on": "CCRIS mutagenicity, Ames/micronucleus/aberration tests", "test": "CCRIS mutagenicity studies", "key": {"[1]": {"settings": "Test System: AMES SALMONELLA TYPHIMURIUM, Strain/Indicator: TA100, Metabolic Activation: NONE, Method: STANDARD PLATE"}, "[2]": {"settings": "Test System: AMES SALMONELLA TYPHIMURIUM, Strain/Indicator: TA1535, Metabolic Activation: NONE, Method: STANDARD PLATE"}, "[3]": {"settings": "Test System: AMES SALMONELLA TYPHIMURIUM, Strain/Indicator: TA98, Metabolic Activation: NONE, Method: STANDARD PLATE"}, "[4]": {"settings": "Test System: AMES SALMONELLA TYPHIMURIUM, Strain/Indicator: TA98, Metabolic Activation: RAT, LIVER, S-9, AROCLOR 1254, Method: STANDARD PLATE"}, "[5]": {"settings": "Test System: AMES SALMONELLA TYPHIMURIUM, Strain/Indicator: TA100, Metabolic Activation: RAT LIVER S-9, AROCLOR 1254, Method: STANDARD PLATE"}}, "note": "Activity calls are given as the source filed them. How the calls were made is not given here.", "data": [{"molecule": "O[C@@H]1C=Cc2c(ccc3cc4ccccc4cc23)[C@H]1O", "values": [{"measurement": "mutagenic call", "setting": "Test System: CHINESE HAMSTER V-79, Strain/Indicator: V-79/OUABAIN, Metabolic Activation: CELL-MEDIATED, Method: STANDARD PLATE", "result": "active; positive"}]}, {"molecule": "CN(C)c1ccc(N=Nc2ccc(N(C)C)cc2)cc1", "values": [{"measurement": "mutagenic call", "setting": "Test System: AMES SALMONELLA TYPHIMURIUM, Strain/Indicator: TA98, Metabolic Activation: RAT, LIVER, S-9, POLYCHLORINATED BIPHENYLS, Method: PREINCUBATION", "result": "inactive; negative"}, {"measurement": "mutagenic call", "setting": "Test System: AMES SALMONELLA TYPHIMURIUM, Strain/Indicator: TA100, Metabolic Activation: RAT, LIVER, S-9, POLYCHLORINATED BIPHENYLS, Method: PREINCUBATION", "result": "inactive; negative"}]}, {"molecule": "CC[C@@H](C)OS(C)(=O)=O", "values": [{"measurement": "mutagenic call", "setting": "[1]", "result": "inactive; negative"}, {"measurement": "mutagenic call", "setting": "[2]", "result": "active; positive"}, {"measurement": "mutagenic call", "setting": "Test System: CHINESE HAMSTER V-79, Strain/Indicator: V-79/6-THIOGUANINE, Metabolic Activation: NONE", "result": "active; positive"}]}, {"molecule": "O=C/C(=C(\\Cl)C(=O)O)C(Cl)Cl", "values": [{"measurement": "mutagenic call", "setting": "Test System: AMES SALMONELLA TYPHIMURIUM, Strain/Indicator: TA97, Metabolic Activation: NONE, Method: STANDARD PLATE", "result": "inactive; negative"}, {"measurement": "mutagenic call", "setting": "Test System: AMES SALMONELLA TYPHIMURIUM, Strain/Indicator: TA97, Metabolic Activation: RAT, LIVER, S-9, PHENOBARBITAL, Method: STANDARD PLATE", "result": "inactive; negative"}, {"measurement": "mutagenic call", "setting": "[3]", "result": "inactive; negative"}, {"measurement": "mutagenic call", "setting": "Test System: AMES SALMONELLA TYPHIMURIUM, Strain/Indicator: TA98, Metabolic Activation: RAT, LIVER, S-9, PHENOBARBITAL, Method: STANDARD PLATE", "result": "inactive; negative"}, {"measurement": "mutagenic call", "setting": "[1]", "result": "active; positive"}, {"measurement": "mutagenic call", "setting": "Test System: AMES SALMONELLA TYPHIMURIUM, Strain/Indicator: TA100, Metabolic Activation: RAT, LIVER, S-9, PHENOBARBITAL, Method: STANDARD PLATE", "result": "inactive; negative"}]}, {"molecule": "O=C(CCl)Nc1snc2ccccc12", "values": [{"measurement": "mutagenic call", "setting": "[3]", "result": "inactive; negative"}, {"measurement": "mutagenic call", "setting": "Test System: AMES SALMONELLA TYPHIMURIUM, Strain/Indicator: TA98, Metabolic Activation: S-9, Method: STANDARD PLATE", "result": "active; positive"}, {"measurement": "mutagenic call", "setting": "[1]", "result": "inactive; negative"}, {"measurement": "mutagenic call", "setting": "Test System: AMES SALMONELLA TYPHIMURIUM, Strain/Indicator: TA100, Metabolic Activation: S-9, Method: STANDARD PLATE", "result": "active; positive"}, {"measurement": "mutagenic call", "setting": "[2]", "result": "inactive; negative"}, {"measurement": "mutagenic call", "setting": "Test System: AMES SALMONELLA TYPHIMURIUM, Strain/Indicator: TA1535, Metabolic Activation: S-9, Method: STANDARD PLATE", "result": "inactive; negative"}, {"measurement": "mutagenic call", "setting": "Test System: AMES SALMONELLA TYPHIMURIUM, Strain/Indicator: TA1537, Metabolic Activation: NONE, Method: STANDARD PLATE", "result": "active; positive"}, {"measurement": "mutagenic call", "setting": "Test System: AMES SALMONELLA TYPHIMURIUM, Strain/Indicator: TA1537, Metabolic Activation: S-9, Method: STANDARD PLATE", "result": "active; positive"}]}, {"molecule": "CC(=O)N(Cl)c1ccc2c(c1)Cc1ccccc1-2", "values": [{"measurement": "mutagenic call", "setting": "[4]", "result": "active; positive"}]}, {"molecule": "COc1ccc(-c2oc3ccccc3c(=O)c2[N+](=O)[O-])cc1[N+](=O)[O-]", "values": [{"measurement": "mutagenic call", "setting": "[5]", "result": "active; positive"}, {"measurement": "mutagenic call", "setting": "Test System: AMES SALMONELLA TYPHIMURIUM, Strain/Indicator: YG1042, Metabolic Activation: RAT LIVER S-9, AROCLOR 1254, Method: STANDARD PLATE", "result": "active; positive"}]}, {"molecule": "Nc1c(F)cc(-c2cc(F)c(N)c(F)c2)cc1F", "values": [{"measurement": "mutagenic call", "setting": "Test System: UDS HUMAN CELLS, Strain/Indicator: THY INCORP (NON-S-PHASE), Metabolic Activation: RAT, LIVER, S-9, PHENOBARBITAL, Method: LIQUID SCINTILLATION COUNTING", "result": "active; positive"}]}, {"molecule": "Cc1cc(S(=O)(=O)O)c([N+](=O)[O-])cc1[N+](=O)[O-]", "values": [{"measurement": "mutagenic call", "setting": "End Point: In vitro chromosomal aberrations, Test System: V79 Chinese hamster fibroblasts, Metabolic Activation: None", "result": "inactive; negative"}, {"measurement": "mutagenic call", "setting": "Test System: Ames Salmonella typhimurium, Strain/Indicator: TA98, Metabolic Activation: None, Method: Standard plate", "result": "inactive; negative"}, {"measurement": "mutagenic call", "setting": "Test System: Ames Salmonella typhimurium, Strain/Indicator: TA98, Metabolic Activation: Rat, Liver, S-9, Method: Standard plate", "result": "inactive; negative"}, {"measurement": "mutagenic call", "setting": "Test System: Ames Salmonella typhimurium, Strain/Indicator: TA100, Metabolic Activation: None, Method: Standard plate", "result": "inactive; negative"}, {"measurement": "mutagenic call", "setting": "Test System: Ames Salmonella typhimurium, Strain/Indicator: TA100, Metabolic Activation: Rat, Liver, S-9, Method: Standard plate", "result": "inactive; negative"}]}, {"molecule": "CC(C)c1cc(-c2ccccc2)ccc1N", "values": [{"measurement": "mutagenic call", "setting": "[3]", "result": "inactive; negative"}, {"measurement": "mutagenic call", "setting": "Test System: AMES SALMONELLA TYPHIMURIUM, Strain/Indicator: TA98, Metabolic Activation: RAT LIVER S-9, AROCLOR, Method: STANDARD PLATE", "result": "active; positive"}, {"measurement": "mutagenic call", "setting": "[1]", "result": "inactive; negative"}, {"measurement": "mutagenic call", "setting": "Test System: AMES SALMONELLA TYPHIMURIUM, Strain/Indicator: TA100, Metabolic Activation: RAT LIVER S-9, AROCLOR, Method: STANDARD PLATE", "result": "active; positive"}]}, {"molecule": "Cn1c2ccccc2c2cc(N)ccc21", "values": [{"measurement": "mutagenic call", "setting": "[3]", "result": "active; positive"}, {"measurement": "mutagenic call", "setting": "Test System: AMES SALMONELLA TYPHIMURIUM, Strain/Indicator: TA98, Metabolic Activation: RAT LIVER S-9, AROCLOR 1254, Method: STANDARD PLATE", "result": "active; positive"}, {"measurement": "mutagenic call", "setting": "[1]", "result": "active; positive"}, {"measurement": "mutagenic call", "setting": "[5]", "result": "active; positive"}]}, {"molecule": "ClC[C@@H](Br)CBr", "values": [{"measurement": "mutagenic call", "setting": "Test System: AMES SALMONELLA TYPHIMURIUM, Strain/Indicator: TA100, Metabolic Activation: RAT, LIVER, MICROSOMES, Method: PREINCUBATION", "result": "active; positive"}]}, {"molecule": "C=CCN1C2c3ccccc3-c3ccccc3C21", "note": "(stereo not drawn)", "values": [{"measurement": "mutagenic call", "setting": "[1]", "result": "active; positive"}, {"measurement": "mutagenic call", "setting": "Test System: CHINESE HAMSTER V-79, Strain/Indicator: V-79/6-THIOGUANINE, Metabolic Activation: NONE, Method: STANDARD PLATE", "result": "active; positive"}]}, {"molecule": "C1=Cc2c(ccc3ccc4ccccc4c23)C1", "values": [{"measurement": "mutagenic call", "setting": "Test System: AMES SALMONELLA TYPHIMURIUM, Strain/Indicator: TA100, Metabolic Activation: RAT, LIVER, S-9, AROCLOR 1254, Method: STANDARD PLATE", "result": "active; positive"}]}, {"molecule": "Cc1ccc2nc3n(C)c4ccc(C)cc4c(C)c-3c2c1", "values": [{"measurement": "mutagenic call", "setting": "[4]", "result": "active; positive"}]}, {"molecule": "BrCc1c2ccccc2cc2c1ccc1ccccc12", "values": [{"measurement": "mutagenic call", "setting": "[3]", "result": "active; positive"}, {"measurement": "mutagenic call", "setting": "[1]", "result": "active; positive"}, {"measurement": "mutagenic call", "setting": "Test System: CHINESE HAMSTER V-79, Strain/Indicator: V-79/8-AZAGUANINE, Metabolic Activation: NONE, Method: STANDARD PLATE", "result": "active; positive"}, {"measurement": "mutagenic call", "setting": "Test System: E. COLI, Strain/Indicator: WP2, Metabolic Activation: NONE, Method: FLUCTUATION", "result": "active; positive"}, {"measurement": "mutagenic call", "setting": "Test System: E. COLI, Strain/Indicator: WP2 UVRA, Metabolic Activation: NONE, Method: FLUCTUATION", "result": "active; positive"}, {"measurement": "mutagenic call", "setting": "Test System: UDS HUMAN CELLS, Strain/Indicator: THY INCORP (NON-S-PHASE), Metabolic Activation: NONE, Method: LIQUID SCINTILLATION COUNTING", "result": "active; positive"}, {"measurement": "mutagenic call", "setting": "Test System: UDS HUMAN FIBROBLASTS, Strain/Indicator: THY INCORP (NON-S-PHASE), Metabolic Activation: NONE, Method: AUTORADIOGRAPHY", "result": "active; positive"}, {"measurement": "mutagenic call", "setting": "Test System: UDS RODENT CELLS, Strain/Indicator: THY INCORP (NON-S-PHASE), Metabolic Activation: NONE, Method: LIQUID SCINTILLATION COUNTING", "result": "active; positive"}]}, {"molecule": "O=[N+]([O-])c1cccc(Br)c1", "values": [{"measurement": "mutagenic call", "setting": "Test System: AMES SALMONELLA TYPHIMURIUM, Strain/Indicator: TA98, Metabolic Activation: NONE, Method: PREINCUBATION", "result": "inactive; negative"}, {"measurement": "mutagenic call", "setting": "Test System: AMES SALMONELLA TYPHIMURIUM, Strain/Indicator: TA98, Metabolic Activation: RAT, LIVER, S-9, KANECHLOR 500, Method: PREINCUBATION", "result": "inactive; negative"}, {"measurement": "mutagenic call", "setting": "Test System: AMES SALMONELLA TYPHIMURIUM, Strain/Indicator: TA100, Metabolic Activation: RAT, LIVER, S-9, KANECHLOR 500, Method: PREINCUBATION", "result": "active; positive"}]}]}
